The values that follow come from paper PMC7665585, “Antidepressive effect of an inward rectifier K^+ channel blocker peptide, tertiapin-RQ” (PLoS ONE, 2020).

One data set deals with T1, mouse GIRK1/2 (Mus musculus, UniProt P48542+P63250).
T1 construct: expressed in transfected cells; host or cells: 293T cells, transient calcium phosphate transfection, pCMV6 plasmid
T1 sequence (P63250 1-501): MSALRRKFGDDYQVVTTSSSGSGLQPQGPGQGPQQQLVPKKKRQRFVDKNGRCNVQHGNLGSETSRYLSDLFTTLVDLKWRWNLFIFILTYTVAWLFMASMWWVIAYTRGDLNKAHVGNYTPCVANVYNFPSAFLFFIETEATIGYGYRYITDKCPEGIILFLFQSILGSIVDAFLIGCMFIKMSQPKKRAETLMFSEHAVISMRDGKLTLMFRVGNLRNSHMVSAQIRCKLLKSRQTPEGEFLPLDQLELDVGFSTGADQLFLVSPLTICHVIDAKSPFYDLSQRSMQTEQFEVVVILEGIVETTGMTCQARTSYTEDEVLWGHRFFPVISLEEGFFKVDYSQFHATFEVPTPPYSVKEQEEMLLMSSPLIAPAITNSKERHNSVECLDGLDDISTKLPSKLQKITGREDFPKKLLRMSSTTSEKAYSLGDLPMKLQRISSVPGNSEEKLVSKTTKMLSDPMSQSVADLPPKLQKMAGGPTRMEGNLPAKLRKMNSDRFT
T1 sequence (P48542 1-425): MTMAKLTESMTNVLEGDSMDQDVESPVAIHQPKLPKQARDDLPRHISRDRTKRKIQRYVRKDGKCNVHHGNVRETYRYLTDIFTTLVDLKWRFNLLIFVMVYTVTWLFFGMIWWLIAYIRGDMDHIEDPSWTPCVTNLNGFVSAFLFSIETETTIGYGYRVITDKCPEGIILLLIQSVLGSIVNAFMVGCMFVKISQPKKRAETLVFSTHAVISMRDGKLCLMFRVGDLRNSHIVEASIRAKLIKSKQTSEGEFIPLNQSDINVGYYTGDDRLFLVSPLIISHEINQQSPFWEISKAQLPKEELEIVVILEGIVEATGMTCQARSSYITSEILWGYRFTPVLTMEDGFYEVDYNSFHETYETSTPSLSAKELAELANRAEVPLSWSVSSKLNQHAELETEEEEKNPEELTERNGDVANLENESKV
The data set is described as follows: Whole-cell patch-clamp of GIRK1/2 in transfected 293T cells. The format is cell-based. The text has this: (§1) The cDNAs for rat ROMK and mouse GIRK1, 2, and 4 were generously donated by Drs Mikio Hayashi (Kansai Medical University) and David Weaver (Vanderbilt University). The ROMK channels were stably expressed by a cell line, 208–4, which was transduced with lentiviral vectors coexpressing the channel and green fluorescent protein (GFP) as described previously. The GIRK genes, cloned in a pCMV6 plasmid (Origene Technologies Inc, Rockville, MD), were transiently expressed in 293T cells with calcium phosphate transfection. GIRK channel currents were recorded 24 h after transfection.
(§2) Cells grown on small cover glasses (3 × 18 mm) were placed in a recording chamber. Whole-cell currents were recorded in Tyrode solution using an Axopatch 200B amplifier (Axon Instruments, Foster City, CA) at 25°C. Tyrode solution contained (in mM): NaCl 140, KCl 5.4, NaH2PO4 0.33, CaCl2 2, MgCl2 1, HEPES 5, and glucose 5.5 (pH 7.4 adjusted with NaOH). […] Whole-cell currents were recorded 60 sec after the peptide application and those from 100 to 300 msec of the step pulses were averaged. […] Whole-cell conductance was calculated as the slope of the current-voltage (I-V) relationship from -140 mV to -100 mV and normalized to the initial value (0 μM TPN), in which BaCl2-resistant current was subtracted and indicted as a percentage.
A general note: Patch clamp records ionic current or voltage across a cell membrane.

The next data set addresses T2, mouse GIRK1/4 (Mus musculus, UniProt P48545+P63250).
T2 construct: expressed in transfected cells; host or cells: 293T cells, transient calcium phosphate transfection, pCMV6 plasmid
T2 sequence (P63250 1-501): T1 sequence (P63250 1-501)
T2 sequence (P48545 1-419): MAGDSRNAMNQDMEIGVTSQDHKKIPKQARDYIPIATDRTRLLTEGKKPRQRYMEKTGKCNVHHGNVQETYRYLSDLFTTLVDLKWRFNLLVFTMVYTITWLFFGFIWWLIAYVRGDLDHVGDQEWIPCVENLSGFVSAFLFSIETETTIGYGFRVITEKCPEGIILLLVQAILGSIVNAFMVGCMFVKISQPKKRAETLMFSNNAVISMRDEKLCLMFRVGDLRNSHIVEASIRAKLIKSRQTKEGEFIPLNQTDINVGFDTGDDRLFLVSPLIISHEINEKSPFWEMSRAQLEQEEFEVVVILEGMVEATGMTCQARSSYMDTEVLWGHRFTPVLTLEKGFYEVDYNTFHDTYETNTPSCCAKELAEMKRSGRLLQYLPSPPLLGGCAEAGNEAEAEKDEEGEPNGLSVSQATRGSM
The data set is described as follows: Whole-cell patch-clamp of GIRK1/4 in transfected 293T cells. The format is cell-based. Particulars: 293T cells transiently expressing mouse GIRK1/4, high K+ Tyrode solution (Fig 7); read-out: IC50, GIRK1/4 conductance.
Text: as §1, §2

Data set [1] in a line: Chemical stability in mouse serum by HPLC. The format is in vitro ADME. As to conditions: 33.0 μM peptide mixed with equal volume of mouse serum, 37°C, 30 min; cation-exchange HPLC (HiTrap-SP), A230 nm. The procedure:
For the examination of the chemical stability, the peptide was analyzed with high-performance liquid chromatography (HPLC, JASCO, Tokyo, Japan) using a cation-exchange column (HiTrap-SP, Cytiva). TPN-RQ 33.0 μM, which was mixed with an equal volume of PBS or mouse serum, was analyzed with HPLC immediately after mixing or after incubation at 37°C for 30 min. Peptides were eluted with a gradient of NaCl from 200 to 2,000 mM in 10 mM Tris-HCl (pH 7.4), monitoring A230 nm with a UV detector (JASCO).

Bridge positions count the residues as written; N and C are the ends. Peptide text beside a SMILES is read from it.

Consider `CC[C@H](C)[C@@H]1NC(=O)[C@H](CCCNC(=N)N)NC(=O)[C@H](CCCNC(=N)N)NC(=O)[C@H](CC(N)=O)NC(=O)[C@@H]2CSSC[C@@H](C(=O)NCC(=O)N[C@@H](CCCCN)C(=O)N[C@@H](CCCCN)C(N)=O)NC(=O)[C@H](CCCCN)NC(=O)[C@H](CCCCN)NC(=O)[C@H](Cc3c[nH]c4ccccc34)NC(=O)[C@H](CSSC[C@H](NC(=O)[C@H](CC(C)C)NC(=O)[C@H](C)N)C(=O)N[C@@H](CC(N)=O)C(=O)N2)NC(=O)[C@H](CCC(N)=O)NC(=O)[C@H](Cc2c[nH]cn2)NC(=O)[C@@H]2CCCN2C(=O)[C@H]([C@@H](C)CC)NC1=O` [Peptide 2, TPN-RQ] (H-ALCNCNRRIIPHQCWKKCGKK-NH2; disulfide 3-14, 5-18), for which the IC50 at mouse GIRK1/2 (293T cells transiently expressing mouse GIRK1/2, high K+ Tyrode solution (Fig 7), read-out: IC50, GIRK1/2 conductance) turned out to be 610 nM; at mouse GIRK1/4 it was 1250 nM. Moreover, in data set [1], the “chemical stability in mouse serum (HPLC peak height and retention time)” value is on record as “No changes in the peak height or retention time”.
With `CC[C@H](C)[C@@H]1NC(=O)[C@H](CCCNC(=N)N)NC(=O)[C@H](CC(N)=O)NC(=O)[C@@H]2CSSC[C@@H](C(=O)NCC(=O)N[C@@H](CCCCN)C(=O)N[C@@H](CCCCN)C(N)=O)NC(=O)[C@H](CCCCN)NC(=O)[C@H](CCCCN)NC(=O)[C@H](Cc3c[nH]c4ccccc34)NC(=O)[C@H](CSSC[C@H](NC(=O)[C@H](CC(C)C)NC(=O)[C@H](C)N)C(=O)N[C@@H](CC(N)=O)C(=O)N2)NC(=O)[C@H](CCC(N)=O)NC(=O)[C@H](CC(C)C)NC(=O)[C@@H]2CCCN2C(=O)[C@H]([C@@H](C)CC)NC(=O)[C@H]([C@@H](C)CC)NC1=O` [Peptide 3, TPN-LQ] (H-ALCNCNRIIIPLQCWKKCGKK-NH2; disulfide 3-14, 5-18; N-terminus and C-terminus assumed), on mouse GIRK1/2 (ratio of IC50 GIRK1/2 to IC50 ROMK), the “difference in IC50, GIRK1/2 over ROMK” value was determined as 20.9 fold.
